The test concerns arachidonic acid induced inflammation in mouse ear. The test can be described thus: Mouse ear model, arachidonic acid (AA) induced inflammation, ear thickness. The test is classed as in vivo. How it is done: The anti-inflammatory properties of CT-112 (SEQ. ID NO: 1) were assessed using a standardized assay for anti-inflammatory activity, i.e., the mouse ear model in which arachidonic acid (AA) is used to induce an inflammatory reaction (Young et al., 1984, J. Invest. Dermatol. 82:367-371; Doherty, et al., 1988, J. Invest. Dermatol. 91:298-302).
Female mice (C57BL/6UAF, Charles River Breeding Laboratories, approximately 15-18 g) were obtained and acclimated for 2 weeks prior to use. The animals were approximately 14 weeks old at the start of the study.
To prepare minipumps for implantation, CT-112 (SEQ. ID NO: 1) was dissolved in PBS. The material was loaded into Alzet minipumps set to deliver 0.05 (5 animals), 0.1 (10 animals), 1 (10 animals), or 2.5 (5 animals) mg of CT-112 (SEQ. ID NO: 1) per animal per day. Minipumps for implantation into control animals contained only PBS. As a positive control, one set of 10 mice received 100 mg/kg of phenidone, a potent 5-lipoxygenase inhibitor which acts as an anti-inflammatory agent, 15 min prior to challenge with AA.
For subcutaneous implantation of minipumps, animals were anesthetized with Ketamine/Xylazine. The Ketamine (Aveco Lot #440140) was injected at 80 mg/kg and the Xylazine (Rugby Laboratories Lot #26040-B) at 16 mg/kg and the Alzet pumps were implanted subcutaneously in the dorsothoracic area. Animals were allowed to recover and then housed and given food and water ad libitum for 5 days.
On the sixth day following pump implantation, 0.01 ml of AA was applied to the inner and outer surfaces of the right ear by means of an automatic microliter pipette. One hr following AA application, the mice were sacrificed and ear thickness was measured with a Mitutoyo No. 7300 Gauge Caliper. The left ears were also measured as an internal control.
Mice were implanted with Alzet mini-pumps set to deliver 60 mg/kg/day for either 7, 3, or 1 days. A separate group of 5 mice received 3 intraperitoneal injections of CT-112 (60 mg/kg/injection) at 24, 1 and 0.25 hr prior to AA challenge. CT-112 (SEQ. ID NO: 1) was prepared for injection by dissolving the compound in Dulbecco's PBS to give a final CT-112 (SEQ. ID NO: 1) concentration of 5 mg/ml. The control mice were implanted with Alzet minipumps that delivered PBS for 7 days. The AA challenge was the same as described supra in Example 7.
Administration of CT-112 (SEQ. ID NO: 1) (60 mg/kg/injection) via multiple intraperitoneal injections was performed at the following times prior to AA challenge:
In addition, the effect of a single administration of CT-112 (SEQ. ID NO: 1) (60 mg/kg) by intraperitoneal injection was performed at either 1 or 3 hr prior to AA challenge. Control mice had Alzet minipumps implanted to deliver PBS for 7 days prior to AA challenge. The AA challenge was the same as described supra in Example 7. The results of the multiple dosing regimens and the 1 hr and 3 hr single dosing regimens were compared to the anti-inflammatory activity of CT-112 (SEQ. ID NO: 1) delivered via Alzet minipump set to deliver 60 mg/kg/day for 7 days using 5 animals per treatment.
In a separate experiment, the effect of multiple intraperitoneal injections of CT-112 (SEQ. ID NO: 1) at either 6, 3, 1 and 0.25 hr, or 16, 3, 1 and 0.25 hr prior to AA challenge was assessed. The results of both multi-dosing regimens were compared to both phenidone (100 mg/kg administered 15 min prior to AA challenge) and CT-112 (SEQ. ID NO: 1) administered via Alzet mini-pump (60 mg/kg/day for 7 days). For this latter study, the number of animals receiving the single injection of CT-112 (SEQ. ID NO: 1) was increased from 5 to 10.
Administration to mice of CT-112 (SEQ. ID NO: 1) (60 mg/kg/injection) via multiple subcutaneous injections prior to AA challenge was performed at:
In addition, other mice received only a single subcutaneous injection of CT-112 (SEQ. ID NO: 1) (60 mg/kg) at either 3 or 1 hr prior to AA challenge. […]

No end group written: not given here.

On to `O=C1CCN(c2ccccc2)N1` [Phenidone, reference compound], for which the “% Reduction of Ear Swelling” value (Table I, phenidone 100 mg/kg, 15 min prior to AA) is recorded as 84.1%.
As to TTSHVKPQ [CT-135, ID; NO; 20], the “% Inhibition” value (Table XII, 60 mg/kg/day via Alzet pump for 24 hr) amounted to 73%. Also, the “Thickness Difference (Left-Right)” value (Table XIII, 60 mg/kg/day via Alzet pump for 24 hr) is listed as 0.00178 ± 0.00073 in.
